# From the PolyMetriX glass transition set
# ± gives the standard deviation of the reports.
row,Compound,glass transition temperature
1,*Nc1ccc(NC(=O)c2ccc(NC(=O)CCCCCCCCC(=O)Nc3ccc(C(*)=O)cc3)cc2)cc1C(=O)OCCCCCCCCCCCCCC (repeat unit),225.00 °C
2,*CCCCCCOC(=O)CCCCCCCCC(=O)O* (repeat unit),-38.00 °C
3,*CCNC(=O)c1ccc(O*)cc1 (repeat unit),150.00 °C
4,*c1cc(C(c2ccc(O)c(-n3c(=O)c4cc5c(=O)n(*)c(=O)c5cc4c3=O)c2)(C(F)(F)F)C(F)(F)F)ccc1O (repeat unit),350.00 °C
5,*CCC1C(=O)N(c2ccc(N(C)C)cc2)C(=O)C1* (repeat unit),195.00 °C
6,*C(=O)Nc1ccc(Oc2ccc(C(C)(C)c3ccc(Oc4ccc(NC(=O)c5ccc6c(c5)C(=O)N(c5ccc(Oc7cccc8c(Oc9ccc(N%10C(=O)c%11ccc(*)cc%11C%10=O)cc9)cccc78)cc5)C6=O)cc4)cc3)cc2)cc1 (repeat unit),235.00 °C
7,*C(=O)c1ccc2c(c1)C(=O)N(c1cc(Br)c(Oc3c(Br)cc(N4C(=O)c5ccc(*)cc5C4=O)cc3Br)c(Br)c1)C2=O (repeat unit),323.00 °C
8,*c1ccc(Oc2ccc(N3C(=O)c4ccc(-c5ccc6c(c5)C(=O)N(*)C6=O)cc4C3=O)cc2)cc1 (repeat unit),279.00 °C
9,*C(=O)c1ccc(C(=O)N(*)c2ccccc2)c(Sc2ccccc2)c1 (repeat unit),152.00 °C
10,*c1ccc(Sc2ccc(Sc3ccc(Sc4ccc(S(*)=O)cc4)cc3)cc2)cc1 (repeat unit),133.00 °C
11,*CC(*)(C)C(=O)OCCOCCOC (repeat unit),57.00 °C
12,*C(*)C(=O)OCCC (repeat unit),-15.00 °C
13,*c1ccc(Oc2cccc(Oc3ccc(N4C(=O)c5cccc(Oc6ccc(C(=O)c7ccc(Oc8cccc9c8C(=O)N(*)C9=O)cc7)cc6)c5C4=O)cc3)c2)cc1 (repeat unit),216.00 °C
14,*C(=O)Nc1ccc(-c2ccc(N3C(=O)CC(N4C(=O)c5ccc(*)cc5C4=O)C3=O)cc2)cc1 (repeat unit),219.00 °C
15,*CCCNC(=O)CCCCC(=O)NCCCN(*)C (repeat unit),5.00 °C
16,*CCCCCCCC(=O)OCC1(C)COC(*)OC1 (repeat unit),-26.00 °C
17,*CCCCOC(=O)c1cccc(C(=O)O*)c1 (repeat unit) [Poly(tetramethylene isophthalate)],21.42 ± 3.4 °C
18,*CC(*)C(=O)OCC(F)(F)C(F)(F)C(F)(F)C(F)(F)F (repeat unit),-37.00 °C
19,*C(=O)Nc1ccc(Oc2cc(C(C)(C)C)c(Oc3ccc(NC(=O)c4ccc5c(c4)C(=O)N(c4ccc(Oc6ccc(C7(c8ccc(Oc9ccc(N%10C(=O)c%11ccc(*)cc%11C%10=O)cc9)cc8)CC8CC7C7CCCC87)cc6)cc4)C5=O)cc3)cc2C(C)(C)C)cc1 (repeat unit),290.00 °C
20,*[Si](*)(C)CCC(F)(F)F (repeat unit),-3.00 °C
21,*c1ccc(OCCN(CCOc2ccc(-c3nc4ccc(Oc5ccc6nc(*)c(-c7ccccc7)nc6c5)cc4nc3-c3ccccc3)cc2)c2ccc(/C=C/c3ccc([N+](=O)[O-])cc3)cc2)cc1 (repeat unit),201.00 °C
22,*CCc1ccc(*)cc1 (repeat unit) [Poly(p-xylene)],70 ± 10 °C

row,Compound,glass transition temperature
1,*CCCCC(=O)O* (repeat unit),-66.00 °C
2,*c1ccc(Oc2ccccc2Oc2ccc(N3C(=O)c4ccc(Oc5cc6ccccc6cc5Oc5ccc6c(c5)C(=O)N(*)C6=O)cc4C3=O)cc2)cc1 (repeat unit),204.00 °C
3,*CC(*)(C#N)C(=O)OCCCC (repeat unit),117.00 °C
4,*c1cc(OCCCCCCCCCCCC)cc(N2C(=O)c3ccc(Oc4ccc5c(c4)C(=O)N(*)C5=O)cc3C2=O)c1 (repeat unit),162.00 °C
5,*O[Si](C)(CCC(F)(F)F)CCC(F)(F)C(F)(F)C(F)(F)C(F)(F)CC[Si](*)(C)CCC(F)(F)F (repeat unit),-25.00 °C
6,*c1ccc(Oc2ccc(C(=O)c3ccc(C(=O)c4ccc(Oc5ccc(-c6nc7ccccc7n6-c6ccc(-n7c(*)nc8ccccc87)cc6)cc5)cc4)cc3)cc2)cc1 (repeat unit),238.00 °C
7,*c1ccc(Cc2ccc(N3C(=O)c4cc(-c5ccc([Si](C)(C)C)cc5)c(-c5cc6c(cc5-c5ccc([Si](C)(C)C)cc5)C(=O)N(*)C6=O)cc4C3=O)cc2)cc1 (repeat unit),348.00 °C
8,*C1(F)OC(C(F)(F)F)(C(F)(F)Cl)OC1(*)F (repeat unit),330.00 °C
9,*CCCCCCOC(=O)CCCCC(=O)O* (repeat unit),-69.00 °C
10,*CCCCCCCCCCSSS* (repeat unit),-70.00 °C
11,*c1ccc(-c2ccc(N3C(=O)c4ccc(-c5cccc6c5C(=O)N(*)C6=O)cc4C3=O)c(C)c2)cc1C (repeat unit),384.00 °C
12,*O[Si](*)(C)CCCOCC1COC(=O)O1 (repeat unit),-25.90 °C
13,*C(=O)Nc1cccc(NC(=O)c2ccc3c(c2)C(=O)N(c2ccc(Oc4ccc5ccc(Oc6ccc(N7C(=O)c8ccc(*)cc8C7=O)cc6)cc5c4)cc2)C3=O)c1 (repeat unit),286.00 °C
14,*CC#CCOC(=O)NCCCCCCNC(=O)O* (repeat unit),-45.00 °C
15,*N=P(N=P(N=S(*)(=O)Nc1ccccc1)(Nc1ccccc1)Nc1ccccc1)(Nc1ccccc1)Nc1ccccc1 (repeat unit),82.00 °C
16,*CC(*)C(=O)OC(C(F)(F)F)C(F)(F)F (repeat unit),42.30 °C
17,*c1ccc(-c2ccc(-c3nc4ccc(-c5ccc6nc(*)c(-c7ccccc7)c(-c7ccccc7)c6c5)cc4c(-c4ccccc4)c3-c3ccccc3)cc2)cc1 (repeat unit),420.00 °C
18,*c1ccc(/C=C(\C#N)C(=O)NC2CCCCC2NC(=O)/C(C#N)=C/c2ccc(N(c3ccccc3)c3ccc(N(*)c4ccccc4)cc3)cc2)cc1 (repeat unit),239.00 °C
19,*OC1CCC(OC(=O)C(*)=O)CC1 (repeat unit),139.60 °C
20,*c1cccc(C(=O)Nc2cccc(S(=O)(=O)c3cccc(NC(=O)c4cccc(N5C(=O)c6ccc(-c7ccc8c(c7)C(=O)N(*)C8=O)cc6C5=O)c4)c3)c2)c1 (repeat unit),247.00 °C
21,*C(=O)c1ccc2c(c1)/C(=N\c1ccc(Oc3ccc(C(c4ccc(Oc5ccc(/N=C6/OC(=O)c7ccc(*)cc76)cc5)cc4)(C(F)(F)F)C(F)(F)F)cc3)cc1)OC2=O (repeat unit),248.00 °C
22,*CC(Cc1cccc2ccccc12)C[Si](*)(C)C (repeat unit),17.00 °C

# Results, then the compound that gave them:
row,glass transition temperature,Compound
1,204.00 °C,*Oc1ccc(C(=O)c2cccc(NC(=O)c3cccc(C(=O)Nc4ccc(C(=O)c5ccc(*)cc5)cc4)c3)c2)cc1 (repeat unit)
2,28.00 °C,*Oc1ccccc1C(=O)OC(=O)c1ccccc1OC(=O)CCCCCCCCC(*)=O (repeat unit)
3,15.00 °C,*CC(*)C(=O)OCCCCCCCCCCOC(=O)c1ccc(OC(=O)c2ccc(C#N)cc2)cc1 (repeat unit)
4,278.00 °C,*c1ccc(Oc2ccc(S(=O)(=O)c3ccc(Oc4ccc(-c5c6c(c(*)c7ccccc57)C(=O)N(c5ccccc5-c5ccccc5)C6=O)cc4)cc3)cc2)cc1 (repeat unit)
5,80.00 °C,*CCN(CCOC(=O)c1cc(OCCN(C)c2ccc(S(=O)(=O)CCCCCCCC)cc2)cc(C(=O)O*)c1)c1ccc(S(=O)(=O)C(F)(F)C(F)(F)C(F)(F)C(F)(F)C(F)(F)C(F)(F)C(F)(F)C(F)(F)F)cc1 (repeat unit)
6,178.00 °C,*Oc1ccc(S(=O)(=O)c2ccc(Oc3ccc(C(=O)c4cccc(C(=O)c5ccc(*)cc5)c4)cc3)cc2)cc1 (repeat unit)
7,54.00 °C,*Oc1ccc(C(C)(C)c2ccc(OC(=O)CCCCC(*)=O)cc2)cc1 (repeat unit)
8,133.00 °C,*OS(=O)(=O)c1cccc(C(=O)Oc2ccc(C(C)(C)c3ccc(*)cc3)cc2)c1 (repeat unit)
9,156.00 °C,*Oc1ccc(C(=O)c2ccccc2)c(-c2cc(Oc3ccc(C(C)(C)c4ccc(*)cc4)cc3)ccc2C(=O)c2ccccc2)c1 (repeat unit)
10,180.00 °C,*Oc1ccc(S(=O)(=O)c2ccc(Oc3ccc(C(C)(C)c4ccc(*)c(C)c4)cc3C)cc2)cc1 (repeat unit)
11,50.00 °C,*Oc1ccc(CC(NC(=O)CCc2ccc(OC(=O)COCCOCC(*)=O)cc2)C(=O)OCC(C)C)cc1 (repeat unit)
12,118.50 °C,*CC(*)(C)C(=O)OCCCCCCOc1ccc(/N=N/c2ccc(C3OCC4(CO3)CC3C=CC4C3)cc2)cc1 (repeat unit)
13,193.00 °C,*Oc1ccc(-c2ccc(Oc3ccc(C(=O)c4ccccc4-c4ccccc4C(=O)c4ccc(*)cc4)cc3)cc2)cc1 (repeat unit)
14,82.70 °C,*Oc1ccc(OC(=O)c2ccc(OCCCCCCCCCCCCOc3ccc(C(*)=O)cc3)cc2)cc1S(=O)(=O)c1ccccc1 (repeat unit)
15,171.00 °C,*Nc1ccc(-c2ccc(NC(=O)Cc3cc(C)c(CC(*)=O)cc3C)cc2)cc1 (repeat unit)
16,162.00 °C,*Oc1ccc(S(=O)(=O)c2ccc(OC(=O)OC3C(C)(C)C(OC(*)=O)C3(C)C)cc2)cc1 (repeat unit)
17,238.00 °C,*c1ccc(Oc2ccc(N3C(=O)c4cccc(Oc5c(Oc6cccc7c6C(=O)N(*)C7=O)cc(C(C)(C)C)cc5C(C)(C)C)c4C3=O)cc2)cc1 (repeat unit)
18,209.00 °C,*Oc1ccc(Oc2ccc(NC(=O)c3ccc(Oc4ccc(Oc5ccc(C(=O)Nc6ccc(*)cc6)cc5)cc4-c4ccccc4)cc3)cc2)cc1 (repeat unit)
19,226.50 °C,*Oc1ccc(-c2ccc(Oc3ccc(C(=O)c4cccc5cccc(C(=O)c6ccc(*)cc6)c45)cc3)cc2)cc1 (repeat unit)
